{"source": "patent EP0873137B1", "about": "“COMPOSITIONS INCLUDING CALCIUM INFLUX BLOCKERS FOR INHIBITING CELL GROWTH” (The Wellesley Hospital Foundation, priority 1996, dated 1997)", "key": {"[1]": {"tested_on": "MDA-MB-231 cells", "assay": "Cell death in autocrine stimulated MDA-MB-231 breast cancer cells", "type": "cell-based, human", "settings": "20µM econazole; Figure 9B", "description": "Bar 1: control; Bar 2: 20µM econazole; Bar 3: 20µM econazole and 10µM YVAD-CHO (ICE inhibitor); Bar 4: 20µM econazole and 100 µM YVAD-CHO; Bar 5: 20µM econazole and 0.1 nM ionomycin (calcium ionophore); Bar 6: 20µM econazole and 10 nM ionomycin; Bar 7: 20µM econazole and 1 µM ionomycin; Bar 8: 20µM econazole and 10 µM oleic acid (PLC activation inhibitor); and Bar 9: 20µM econazole and 100 µM oleic acid.\n(§1) Cells. Bone marrow derived mast cells (BMMC) were generated as described previously (Berger et al., 1994). They were cultured in OPTI-MEM (Gibco, Burlington, ON) supplemented with 10% heat-inactivated FBS and 2% WEHI-3 supernatant as a source of IL-3. 32D-kit cells (gift from Dr. Mark Minden, Ontario Cancer Institute) are an IL-3-dependent myelomonocytic cell line expressing c-kit (Hu et al., 1995). 32D-kit cells were grown in RPMI (Gibco) supplemented with 10% heat-inactivated FBS, 2% WEHI-3 supematant, and 1 mg/ml G418 (Gibco). The p815 cell line is a murine mastocytoma cell line. P815 cells were grown in RPMI supplemented with 10% heat-inactivated FBS. Bcl-2 gp+e NIH 3T3 packaging cells were grown in Dulbecco's modified Eagle's medium (DMEM - Gibco) and supplemented with 10% FBS and 2 µg/ml puromycin (Sigma, St. Louis, Mo). All cell cultures also contained 55µM β-mercaptoethanol and antibiotics (both Sigma). SK-BR3, MDA-MB231 and MCF-7 cells were obtained from ATCC. SK-BR3 and MDA-MB231 cells were cultured in RPMI medium supplemented with 10% heat inactivated fetal bovine serum. MCF-7 cells were cultured in DMEM medium supplemented with 10% heat inactivated fetal bovine serum and 10 µg/ml human insulin (Sigma).\nThe MDA-MB-231 cell line is a highly anaplastic carcinoma of the breast. it too is tumorigenic in nude mice but expresses only low levels of erbB2. However it is FGF^R positive and is stimulated in an autocrine fashion by bFGF (el Yazidi et al., 1995). Experiments were carried out to determine the susceptibility of MDA-MB-231 cells to a Ca^2+ influx blocker and the influence of oleic acid, ionomycin, and YVAD-CHO on induction of cell death by the blocker. The results are summarized together in Figure 9B."}, "[2]": {"tested_on": "BMMC", "assay": "Analysis of DNA content (propidium iodide, flow cytometry) in BMMC", "type": "cell-based", "settings": "24 hours", "description": "Analysis of DNA content. 1.25 X 10^6 cells were incubated for 18 or 24 hours as described above. Cells were spun down and resuspended in Vindelov's reagent: 3.4mM Tris - pH 8, 75 µM Propidium Iodide (from Sigma), 0.1% NP-40, 700 u/l RNAse (Sigma) and 10 mM NaCl. Cells were then analysed by flow cytometry."}, "[3]": {"tested_on": "NS1/Ag4 myeloma cells", "settings": "at 1µg/ml; cited from earlier work"}, "[4]": {"tested_on": "32D-kit-Bcl-2 cells", "assay": "Cell death assay (Trypan blue exclusion) in Bcl-2 over-expressing 32D-kit cells", "type": "cell-based", "settings": "SLF plus 2.5, 5 or 10µM econazole; 18 hours; Figure 7B", "description": "Figures 6A and 6B show the effect of ionomycin on apoptosis induced by SLF and Ca^2+ influx blacker. In Figure 6A, 32D-kit cells were incubated for 18 hours with 5µM econazole and the indicated amounts of ionomycin in the presence of either SLF (circles) or IL-3 (squares). In Figure 6B, 32D-kit-Bcl-2 cells were incubated for 18 hours with 5µM econazole and the indicated amounts of ionomycin in the presence of either SLF (circles) or IL-3 (squares). The proportion of dead cells was determined by Trypan Blue exclusion.\nIn additional cultures, IL-3 alone or no factor was added and cell viability was similarly tested. The effect on cell viability of adding 25 or 250 µM YVAD-CHO was also evaluated in separate cultures in which no additional factors were added.\nGeneration of Bcl-2 over-expressing 32D-kit cells. gp + e bcl-2 retroviral producer cells were a gift from Dr. Y. Ben-David (Toronto) and contain an LXSN-based retroviral vector expressing genes for both puromycin resistance and murine bcl-2. For infection, a confluent layer of gp + e packaging cells were co-cultured with 32D-kit cells for 24 hours. Non-adherent 32D-kit cells were then removed, cultured for 48 hours and then selected for bcl-2 over-expressing cells in the presence of 2µg/ml puromycin.\n(§2) Cell death assays. 2.5 X 10^4 BMMCs, 32D-kit or P815 cells were placed in 96-well flat bottom plates in a volume of 0.1 ml RPMI containing 0.5% FBS. Cells were supplemented with either SLF, Substance P or IL3 plus Ca^2+ channel blocker. In the case of adding IgE, cells were incubated with 10 µg/ml SPE-7 for 45 minutes at 4°C followed by 3 washes with RPMI, 0.5% FBS before plating in 96 well plates and adding 100 ng/ml DNP-HSA. The proportion of dead cells was determined after 18 or 24 hours in culture by counting cells that could or could not exclude Trypan blue."}, "[5]": {"tested_on": "SK-BR3 cells", "assay": "Cell death (Trypan blue exclusion) in SK-BR3 breast cancer cells", "type": "cell-based, human", "settings": "with or without 10ng/ml EGF; 18 hours; Figure 9A", "description": "as §1"}, "[6]": {"tested_on": "MCF-7 cells", "assay": "Cell death (Trypan blue exclusion) in MCF-7 cells", "type": "cell-based, human", "settings": "with versus without 10ng/ml EGF; 18 hours; Figure 10", "description": "2.5 X 10^4 MCF-7 cells were incubated in the wells of a 96-well plate in 0.1ml DMEM plus 0.5% FBS with (circles) or without (squares) 10ng/ml EGF and with the concentrations of econazole indicated for 18 hours. The proportion of dead cells was evaluated by Trypan Blue exclusion after 18 hours in culture.\nas §1, with “MCF-7 cells were cultured in DMEM medium supplemented with 10% heat inactivated fetal bovine serum and 10 µg/ml human insulin (Sigma).” left out"}, "[7]": {"tested_on": "Bone marrow derived mast cells (BMMC)", "assay": "Cell death assay (Trypan blue exclusion) in BMMC", "type": "cell-based", "settings": "for cell death: 24 hours", "description": "Cytotoxicity assays were performed as described in Materials and Methods. In Figures 1A to 1C, BMMCs were incubated with either SLF (500ng/ml in all cases) (circles) or IL-3 (25% WEHI-3 conditioned medium in all cases) (squares) with the indicated amounts of ketotifen (Figure 1A), econazole (Figure 1B) or Ni^2+ (Figure 1C). In Figure 1D, BMMCs were incubated with IL-3, and the indicated amounts of SLF. Plotted circles also included 2.5mM Ni^2+ and plotted squares included no Ni^2+. In Figure 1E, BMMCs were coated with IgE anti-DNP monoclonal SPE-7, then incubated with IL-3 plus the indicated amounts of DNP-HSA (Ag), with 5µM econazole (circles) or without econazole (squares). In Figure 1F, BMMCs were incubated with IL-3 plus the indicated amounts of Substance P, with 5µM econazole (circles) or without econazole (squares). In all cases, the proportion of dead cells was determined after 24 hours in culture by counting cells that could or could not exclude Trypan blue. Error bars represent the standard error determined from triplicate measurements.\nas §1, §2"}}}
{"smiles": "Clc1ccc(COC(Cn2ccnc2)c2ccc(Cl)cc2Cl)cc1", "note": "(centres unmarked) [econazole]", "values": [{"measurement": "apoptosis", "setting": "[1]", "value": "undergo apoptosis"}, {"measurement": "Sub G1 Content (%) 8µM econazole", "setting": "[2]; 8µM econazole plus IL-3 (25% WEHI conditioned media)", "value": 20.4, "unit": "%"}, {"measurement": "Sub G1 Content (%) 8µM econazole", "setting": "[2]; 8µM econazole plus SLF (500ng/m.)", "value": 66.8, "unit": "%"}, {"measurement": "cell viability and cell numbers", "setting": "[3]", "value": "reduce cell viability and cell numbers"}, {"measurement": "protection by Bcl-2 overexpression from induction of apoptosis", "setting": "[4]", "value": "fails to protect"}, {"measurement": "cell death", "setting": "[5]", "value": "equivalent levels of death"}, {"measurement": "sensitivity to cell death", "setting": "[6]", "value": "more sensitive"}, {"measurement": "cell death", "setting": "[7]; co-incubated with SLF (500ng/ml), Figures 1A-C", "value": "converted to a death signal"}, {"measurement": "cell viability", "setting": "[7]; econazole alone, without antigenic stimulation", "value": "no effect on cell viability"}, {"measurement": "cell death", "setting": "[7]; stimulated with IgE plus antigen (DNP-HSA), with IL-3, 5µM econazole in Figure 1E", "value": "cell death is induced"}, {"measurement": "cell death", "setting": "[7]; stimulated with Substance P, IL-3, 5µM econazole", "value": "cell death is also induced"}]}
